Data taken from patent US10201556B2, “Combination for use in treating diseases or conditions associated with melanoma, or treating diseases or conditions associated with activated B-raf pathway” (InteRNA Technologies B.V., priority 2012, dated 2019).
Entries after “also recorded” stand apart in the source; their conditions may differ.

How the values were obtained:
Assay type in all cases: cell-based, human
[1] = test system: AURKB; test: Western blotting of AURKB protein levels
Experimental: (§1) Transfection was performed as described in Example 4 in 6-well format. Proteins were isolated using RIPA buffer (50 mM Tris pH 8.0, 150 mM NaCL, 1% NP-40, 0.5% Sodium deoxycholate, 0.1% SDS), supplemented with Protease Inhibitor Cocktail (Sigma) and Halt™ Phosphatase Inhibitor Cocktail (Pierce/Thermo Scientific). Fifteen μg protein was loaded on a 12% Mini-PROTEAN® TGX™ Precast Gel (Bio-Rad), and proteins were transferred to Immun-Blot PVDF Membrane (Bio-Rad). Membranes were blocked in 5% milk or 5% BSA in TBS-T, and incubated O/N at 4° C. with primary antibodies against α-tubulin (1:5000), BRAF, pERK1/2, CDK4, RRM2 (all 1:1000), BCL-2 (1:500) (Santa Cruz), total-ERK1/2 (1:2000), BIRC5, AURKB (1:1000) (Cell Signaling), ERK1 (1:2000) (GeneTex). After incubation with appropriate secondary antibodies and western blot chemiluminescence substrate ECL (Pierce/Thermo Scientific), membranes were exposed to CL-XPosure Film (Pierce/Thermo Scientific).

[2] = test system: BCL2; test: Western immunoblotting of BCL2 protein levels
Experimental: (§2) As control a scrambled miRNA and a non-targeting siRNA pool were included. Proteins were harvested 72 hrs post transfection using RIPA buffer supplemented with HALT™ Phosphatase Inhibitor (Thermo Scientific) and Protease Inhibitor Cocktail (Sigma). […] The membranes were blocked in 5% milk in TBS-T and incubated O/N at 4° C. with primary antibodies to bRAF, total ERK1/2, phosphoERK1/2, CDK4, BCL2 and tubulin (Santa Cruz). After incubation with secondary goat-anti-mouse antibodies (Santa Cruz), membranes were developed using ECL (Pierce).
as §2, with “Proteins” for “As control a scrambled miRNA and a non-targeting siRNA pool were included. Proteins”
(§3) As control a scrambled miRNA was included. Proteins were harvested 72 hrs post transfection using RIPA buffer supplemented with HALT™ Phosphatase Inhibitor (Thermo Scientific) and Protease Inhibitor Cocktail (Sigma). Fifteen μg protein was loaded on 10% TGX acrylamide gels (Bio-Rad) and subsequently transferred to PVDF membranes. The membranes were blocked in 5% milk in TBS-T and incubated O/N at 4° C. with primary antibodies to bRAF, total ERK1/2, phosphoERK1/2, BCL2, CDK4 and tubulin (Santa Cruz). After incubation with secondary goat-anti-mouse antibodies (Santa Cruz), membranes were developed using ECL (Pierce).
as §1, with “Proteins” for “Transfection was performed as described in Example 4 in 6-well format. Proteins”, “Fifteen μg protein was loaded on a 12% Mini-PROTEAN® TGX™ Precast Gel (Bio-Rad), and proteins were transferred to Immun-Blot PVDF Membrane (Bio-Rad).” left out

[3] = test system: BIRC5; test: Western blotting of BIRC5 protein levels
Experimental: as §1

[4] = test system: CDK4; test: Western immunoblotting of CDK4 protein levels
Experimental: as §3, with “A375Hu cells were seeded in 6-well plates and transfected with different concentrations (1, 10 and 100 nM) of synthetic hsa-miR-3157 or BRAF siRNA (100 nM) using RNAiMAX (7.5 μl/well). As” for “As”, “miRNA and a non-targeting siRNA pool were” for “miRNA was”, “on 7.5%” for “on 10%”, “phosphoERK1/2, CDK4, BCL2” for “phosphoERK1/2, BCL2, CDK4”
as §3, with “A375Hu cells were seeded in 6-well plates and transfected with different concentrations of vemurafenib (PLX-4032, 0.01, 0.1, 1 uM).” for “As control a scrambled miRNA was included.”, “7.5%” for “10%”, “CDK4, BCL2” for “BCL2, CDK4”
as §3, with “A2058 cells were seeded in 6-well plates and transfected with different concentrations (1, 10 and 100 nM) of synthetic hsa-miR-3157-5p or BRAF siRNA using X-TremeGene (Roche, 15 μl/well). As” for “As”
as §1

[5] = vemurafenib-resistant A2058, M249-AR4 and M376, 1 μM, 24 hrs (FIG. 14b)
[6] = vemurafenib-sensitive A375 and M249, 1 μM, 24 hrs (FIG. 14b)
[7] = A375Hu cells, 72 hrs, Western blot
[8] = A375Hu cells, 72 hrs, Western blot, listed as PLX-4032
[9] = A375 cells, increasing concentrations of mimic (FIG. 12c)
[10] = A2058, M249, M249-AR4 and M376, increasing concentrations of mimic (FIG. 14a)
[11] = A2058 cells (vemurafenib resistant), 72 hrs post transfection, Western blot

| Compound | AURKB protein levels [1, 5] | AURKB protein levels [1, 6] | BCL2 protein levels [2, 7] | BCL2 protein levels [2, 8] | BIRC5 protein levels [3, 5] | BIRC5 protein levels [3, 6] | CDK4 protein levels [4, 8] | AURKB protein levels [1, 9] | AURKB protein levels [1, 10] | BCL2 protein levels [2, 9] | BCL2 protein levels [2, 10] | BCL2 protein levels [2, 11] | BIRC5 protein levels [3, 9] | BIRC5 protein levels [3, 10] | CDK4 protein levels [4, 7] | CDK4 protein levels [4, 9] | CDK4 protein levels ([4]; A2058, increasing concentrations of mimic (FIG. 14a)) | CDK4 protein levels [4, 11] | CDK4 protein levels ([4]; M249-AR4, increasing concentrations of mimic (FIG. 14a)) | CDK4 protein levels ([4]; M249 and M376, increasing concentrations of mimic (FIG. 14a)) |
| --- | --- | --- | --- | --- | --- | --- | --- | --- | --- | --- | --- | --- | --- | --- | --- | --- | --- | --- | --- | --- |
| CCCS(=O)(=O)Nc1ccc(F)c(C(=O)c2c[nH]c3ncc(-c4ccc(Cl)cc4)cc23)c1F [Vemurafenib, N-(3-{[5-(4-chlorophenyl)-1H-pyrrolo[2,3-b]pyridin-3-yl]carbonyl}-2,4-difluorophenyl)propane-1-sulfonamide] | protein levels similar to control-treated cells | downregulated | but not CDK4 or BCL2 | not in reduction of CDK4 and BCL2 protein levels | protein levels similar to control-treated cells | downregulated | not in reduction of CDK4 and BCL2 protein levels |  |  |  |  |  |  |  |  |  |  |  |  |  |
| hsa-miR-3157-5p: mature miRNA mimic, SEQ ID NO 6 UUCAGCCAGGCUAGUGCAGUCU (listed as RNA, chemistry not given here) |  |  | significant reduction in BCL2 protein levels; also recorded: down-regulated |  |  |  |  | most pronounced | strongly downregulated | strong reduction | no effect | reduction; also recorded: down-regulated | most pronounced | strong downregulation | significant reduction in CDK4 protein levels; also recorded: down-regulated | strong reduction | mild effect | reduction; also recorded: down-regulated | no effect | strong downregulation |
